In ChEMBL document CHEMBL4840351 (J Med Chem, 2021):
Active and inactive are the calls of the source. No cut-off for these calls is given here.

Legend:
Cytochrome P450 3A4 [1] = target: T1, Cytochrome P450 3A4 (Homo sapiens, UniProt P08684); experiment: Inhibition of CYP3A4T in human liver microsomes using midazolam as substrate incubated for 10 mins in presence of NADPH by LC-MS/MS analysis; format: ADME
Cytochrome P450 3A4 [2] = target: T1, Cytochrome P450 3A4; experiment: Inhibition of CYP3A4M in human liver microsomes using midazolam as substrate incubated for 10 mins in presence of NADPH by LC-MS/MS analysis; format: ADME
Cytochrome P450 2C19 = Cytochrome P450 2C19 (Homo sapiens, UniProt P33261); experiment: Inhibition of CYP2C19 in human liver microsomes using S-mephenytoin as substrate incubated for 10 mins in presence of NADPH by LC-MS/MS analysis; format: ADME
[3] = Cmax in ICR mouse at 15 mg/kg, po after 24 hrs; format: ADME, organism-based; set-up: route oral, time 24 hrs, dose 15 mg/kg; details: in vivo
[4] = Receptor occupancy at BTK in PBMC of ICR mouse at 15 mg/kg, po after 24 hrs by ELISA; format: functional
[5] = Receptor occupancy at BTK in spleen of ICR mouse at 15 mg/kg, po after 24 hrs by ELISA; format: functional
[6] = Receptor occupancy at BTK in PBMC of ICR mouse at 15 mg/kg, po after 1 hr by ELISA; format: functional
[7] = Toxicity in SFP CD-1 mouse assessed as change in temperature at 10 to 1280 mg/kg, po administered for 7 days; format: organism-based; details: in vivo, 168 h, dose 10-1280 mg/kg, time 7 day
[8] = Toxicity in SFP CD-1 mouse assessed as change in behavior at 10 to 1280 mg/kg, po administered for 7 days; format: organism-based; details: in vivo, 168 h, dose 10-1280 mg/kg, time 7 day
[9] = Toxicity in SFP CD-1 mouse assessed as change in body weight at 10 to 1280 mg/kg, po administered for 7 days; format: organism-based; details: in vivo, 168 h, dose 10-1280 mg/kg, time 7 day
[10] = Toxicity in SFP CD-1 mouse assessed as mortality at 10 to 1280 mg/kg, po administered for 7 days; format: organism-based; details: in vivo, 168 h, dose 10-1280 mg/kg, time 7 day
[11] = AUC in Sprague-Dawley rat at 5 mg/kg, po measured upto 24 hrs by LC/MS/MS analysis; format: ADME, organism-based; set-up: route oral, dose 5 mg/kg, time <=24; details: in vivo
[12] = Clearance in Sprague-Dawley rat at 5 mg/kg, iv measured upto 24 hrs by LC/MS/MS analysis; format: ADME, organism-based; details: in vivo
[13] = target: T2, Tyrosine-protein kinase BTK (Homo sapiens, UniProt Q06187); experiment: Inhibition of full-length N-terminal GST tagged BTK (2 to 659 residues) (unknown origin) expressed in Sf21 insect cells using NH2-ETVYSEVRK-biotin as substrate preincubated for 1 hr followed by ATP addition and measured after 2 hrs by ELISA
[14] = target: Epidermal growth factor receptor (Homo sapiens, UniProt P00533); experiment: Inhibition of N-terminal DYKDDDD-tagged EGFR (669 to 1210 residues) (unknown origin) expressed in Sf21 insect cells using NH2-ETVYSEVRK-biotin as substrate preincubated for 1 hr followed by ATP addition and measured after 2 hrs by ELISA
[15] = target: Tyrosine-protein kinase BTK (Homo sapiens, UniProt Q06187, C481S); experiment: Inhibition of BTK C481S mutant (unknown origin)
[16] = target: Tyrosine-protein kinase Tec (Homo sapiens, UniProt P42680); experiment: Inhibition of TEC (unknown origin)
[17] = target: Tyrosine-protein kinase Blk (Homo sapiens, UniProt P51451); experiment: Inhibition of BLK (unknown origin)
[18] = target: Tyrosine-protein kinase Fyn (Homo sapiens, UniProt P06241); experiment: Inhibition of FYN (unknown origin)
[19] = target: Tyrosine-protein kinase Lck (Homo sapiens, UniProt P06239); experiment: Inhibition of LCK (unknown origin)
MOLM-13 = experiment: Antiproliferative activity against human MOLM-13 cells assessed as reduction in cell viability incubated for 72 hrs by celltiter-glo assay; details: MOLM-13, 72 h
TMD8 [20] = experiment: Antiproliferative activity against human TMD8 cells assessed as reduction in cell viability incubated for 72 hrs by celltiter-glo assay; details: TMD8, 72 h
Rec1 = experiment: Antiproliferative activity against human REC-1 cells assessed as reduction in cell viability incubated for 72 hrs by celltiter-glo assay; details: Rec1, 72 h
NAMALVA = experiment: Antiproliferative activity against human NAMALWA cells assessed as reduction in cell viability incubated for 72 hrs by celltiter-glo assay
SU-DHL-2 = experiment: Antiproliferative activity against human SUDHL2 cells assessed as reduction in cell viability incubated for 72 hrs by celltiter-glo assay; details: SU-DHL-2, 72 h
Pfeiffer = experiment: Antiproliferative activity against human Pfeiffer cells assessed as reduction in cell viability incubated for 72 hrs by celltiter-glo assay
TMD8 [21] = experiment: Induction of cell cycle arrest in human TMD8 cells assessed as accumulation of cells at S phase at 3 nM incubated for 48 hrs by PI staining based flow cytometric analysis (reference value: 37.42 %); format: functional
TMD8 [22] = experiment: Induction of cell cycle arrest in human TMD8 cells assessed as accumulation of cells at G2 phase at 3 nM incubated for 48 hrs by PI staining based flow cytometric analysis (reference value: 4.92 %); format: functional
TMD8 [23] = experiment: Induction of cell cycle arrest in human TMD8 cells assessed as accumulation of cells at S phase at 30 nM incubated for 48 hrs by PI staining based flow cytometric analysis (reference value: 37.42 %); format: functional
TMD8 [24] = experiment: Induction of cell cycle arrest in human TMD8 cells assessed as accumulation of cells at G2 phase at 30 nM incubated for 48 hrs by PI staining based flow cytometric analysis (reference value: 4.92 %); format: functional
TMD8 [25] = experiment: Induction of cell cycle arrest in human TMD8 cells assessed as accumulation of cells at G1 phase at 300 nM incubated for 48 hrs by PI staining based flow cytometric analysis (reference value: 57.66 %); format: functional
TMD8 [26] = experiment: Induction of apoptosis in human TMD8 cells at 30 nM incubated for 72 hrs by Annexin V-FITC/PI staining based flow cytometric analysis (reference value: 13.4 %); format: functional
[27] = target: T2, Tyrosine-protein kinase BTK; experiment: Inhibition of BTK in human TMD8 cells assessed as reduction in PLCgamma2 phosphorylation at Tyr 1217 residue at 0 to 1000 nM after 4 hrs by Western blot analysis; format: cell-based; details: dose 0-1000 nM
[28] = Cmax in CB-17 SCID mouse xenografted with human TMD8 cells at 7.5 mg/kg, po bid administered for 21 days; format: ADME, organism-based; set-up: route oral, dose 7.5 mg/kg, time 21 day; details: in vivo
[29] = AUC(0 to 8 hrs) in CB-17 SCID mouse xenografted with human TMD8 cells at 7.5 mg/kg, po bid administered for 21 days; format: ADME, organism-based; set-up: route oral, time 21 day, dose 7.5 mg/kg; details: in vivo
TMD8 [30] = experiment: Antitumor activity against human TMD8 cells xenografted in CB-17 SCID nude mouse assessed as tumor growth inhibition at 15 mg/kg, po bid administered for 21 days; format: functional; details: 504 h, time 21 day, read-out: TGI
[31] = Toxicity in CB-17 SCID mouse xenografted with human TMD8 cells assessed as change in body weight at 3.75 to 15 mg/kg, po bid administered for 21 days; format: organism-based; details: in vivo, 504 h, dose 3.75-15 mg/kg, time 21 day

T1 sequence (P08684 whole entry): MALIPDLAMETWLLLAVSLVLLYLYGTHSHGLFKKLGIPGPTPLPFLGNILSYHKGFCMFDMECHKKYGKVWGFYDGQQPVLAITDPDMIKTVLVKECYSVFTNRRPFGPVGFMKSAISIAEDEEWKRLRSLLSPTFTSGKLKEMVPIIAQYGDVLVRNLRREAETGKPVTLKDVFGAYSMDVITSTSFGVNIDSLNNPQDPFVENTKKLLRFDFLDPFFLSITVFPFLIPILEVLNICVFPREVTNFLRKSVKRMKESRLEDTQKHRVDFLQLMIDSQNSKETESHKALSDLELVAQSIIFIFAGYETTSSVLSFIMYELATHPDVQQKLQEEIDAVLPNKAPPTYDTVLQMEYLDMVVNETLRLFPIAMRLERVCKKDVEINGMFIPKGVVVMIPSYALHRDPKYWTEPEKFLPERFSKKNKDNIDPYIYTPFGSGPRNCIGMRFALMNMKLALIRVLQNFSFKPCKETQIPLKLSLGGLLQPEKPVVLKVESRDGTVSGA
T2 sequence (Q06187 whole entry, the tested form may be a part): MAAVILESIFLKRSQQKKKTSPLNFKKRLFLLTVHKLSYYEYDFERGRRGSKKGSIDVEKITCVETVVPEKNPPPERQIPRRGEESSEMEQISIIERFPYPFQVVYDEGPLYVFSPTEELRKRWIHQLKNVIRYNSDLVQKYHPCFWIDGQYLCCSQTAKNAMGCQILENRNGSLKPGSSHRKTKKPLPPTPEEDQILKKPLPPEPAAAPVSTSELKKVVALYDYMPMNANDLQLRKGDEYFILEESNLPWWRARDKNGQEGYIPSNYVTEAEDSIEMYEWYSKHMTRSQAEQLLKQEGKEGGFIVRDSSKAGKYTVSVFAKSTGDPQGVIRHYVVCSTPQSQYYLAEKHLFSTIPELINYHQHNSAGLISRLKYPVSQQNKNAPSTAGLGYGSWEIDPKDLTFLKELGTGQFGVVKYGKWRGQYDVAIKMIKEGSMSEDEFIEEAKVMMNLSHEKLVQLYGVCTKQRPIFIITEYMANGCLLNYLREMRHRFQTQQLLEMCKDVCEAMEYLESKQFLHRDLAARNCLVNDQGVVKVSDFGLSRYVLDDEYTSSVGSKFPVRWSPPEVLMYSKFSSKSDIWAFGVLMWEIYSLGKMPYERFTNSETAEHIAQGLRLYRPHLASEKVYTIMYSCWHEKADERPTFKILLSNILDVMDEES
Sequence of Tyrosine-protein kinase Tec (P42680 whole entry): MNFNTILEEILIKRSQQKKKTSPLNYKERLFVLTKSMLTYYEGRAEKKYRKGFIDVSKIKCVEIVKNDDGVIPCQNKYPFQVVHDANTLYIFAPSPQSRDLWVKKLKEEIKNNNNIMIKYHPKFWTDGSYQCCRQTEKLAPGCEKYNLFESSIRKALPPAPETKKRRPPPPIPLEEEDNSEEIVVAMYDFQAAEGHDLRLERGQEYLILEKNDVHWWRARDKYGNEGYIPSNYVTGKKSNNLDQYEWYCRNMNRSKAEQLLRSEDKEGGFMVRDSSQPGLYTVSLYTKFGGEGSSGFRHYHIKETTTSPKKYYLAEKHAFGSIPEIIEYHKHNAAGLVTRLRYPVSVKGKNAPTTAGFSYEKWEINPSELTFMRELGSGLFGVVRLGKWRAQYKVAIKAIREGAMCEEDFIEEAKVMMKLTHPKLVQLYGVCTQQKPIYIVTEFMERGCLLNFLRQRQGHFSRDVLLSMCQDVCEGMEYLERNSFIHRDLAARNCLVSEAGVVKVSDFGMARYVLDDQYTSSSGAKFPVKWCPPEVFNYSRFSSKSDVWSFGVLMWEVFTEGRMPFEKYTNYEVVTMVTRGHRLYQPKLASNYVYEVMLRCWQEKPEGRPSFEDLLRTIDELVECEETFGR
Sequence of Tyrosine-protein kinase Blk (P51451 whole entry): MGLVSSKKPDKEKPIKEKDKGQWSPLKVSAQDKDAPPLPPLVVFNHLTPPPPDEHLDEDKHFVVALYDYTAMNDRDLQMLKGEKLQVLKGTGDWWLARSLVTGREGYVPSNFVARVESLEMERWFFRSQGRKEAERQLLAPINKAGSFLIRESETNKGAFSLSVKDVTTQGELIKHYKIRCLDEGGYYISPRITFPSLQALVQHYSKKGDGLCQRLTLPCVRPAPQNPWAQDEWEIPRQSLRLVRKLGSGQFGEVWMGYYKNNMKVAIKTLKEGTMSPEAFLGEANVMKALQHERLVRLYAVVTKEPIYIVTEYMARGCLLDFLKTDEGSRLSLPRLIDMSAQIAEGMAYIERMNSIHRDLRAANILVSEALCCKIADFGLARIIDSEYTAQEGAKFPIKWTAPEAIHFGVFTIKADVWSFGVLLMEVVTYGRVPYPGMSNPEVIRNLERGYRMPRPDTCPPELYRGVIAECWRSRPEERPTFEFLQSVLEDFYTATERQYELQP
Sequence of Tyrosine-protein kinase BTK (Homo sapiens, UniProt Q06187, C481S) (Q06187 2-659 C481S limits assumed): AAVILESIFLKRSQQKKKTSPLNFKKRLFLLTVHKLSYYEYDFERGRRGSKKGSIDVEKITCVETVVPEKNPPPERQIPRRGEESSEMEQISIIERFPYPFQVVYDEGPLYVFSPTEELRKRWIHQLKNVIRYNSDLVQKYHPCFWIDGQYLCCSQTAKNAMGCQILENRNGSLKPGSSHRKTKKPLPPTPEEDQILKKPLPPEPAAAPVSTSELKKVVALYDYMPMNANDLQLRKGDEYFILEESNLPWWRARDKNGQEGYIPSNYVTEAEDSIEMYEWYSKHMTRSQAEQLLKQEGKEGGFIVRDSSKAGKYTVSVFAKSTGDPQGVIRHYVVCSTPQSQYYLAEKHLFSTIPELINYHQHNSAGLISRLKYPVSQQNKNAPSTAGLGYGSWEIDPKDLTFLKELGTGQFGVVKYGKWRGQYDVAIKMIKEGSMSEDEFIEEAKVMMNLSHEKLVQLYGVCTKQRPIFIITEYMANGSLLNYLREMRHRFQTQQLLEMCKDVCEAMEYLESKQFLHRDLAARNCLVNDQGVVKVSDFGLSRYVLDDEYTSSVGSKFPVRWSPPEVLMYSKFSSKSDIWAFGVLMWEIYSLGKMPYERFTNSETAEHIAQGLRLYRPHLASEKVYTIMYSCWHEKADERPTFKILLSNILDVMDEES
Sequence of Cytochrome P450 2C19 (P33261 whole entry): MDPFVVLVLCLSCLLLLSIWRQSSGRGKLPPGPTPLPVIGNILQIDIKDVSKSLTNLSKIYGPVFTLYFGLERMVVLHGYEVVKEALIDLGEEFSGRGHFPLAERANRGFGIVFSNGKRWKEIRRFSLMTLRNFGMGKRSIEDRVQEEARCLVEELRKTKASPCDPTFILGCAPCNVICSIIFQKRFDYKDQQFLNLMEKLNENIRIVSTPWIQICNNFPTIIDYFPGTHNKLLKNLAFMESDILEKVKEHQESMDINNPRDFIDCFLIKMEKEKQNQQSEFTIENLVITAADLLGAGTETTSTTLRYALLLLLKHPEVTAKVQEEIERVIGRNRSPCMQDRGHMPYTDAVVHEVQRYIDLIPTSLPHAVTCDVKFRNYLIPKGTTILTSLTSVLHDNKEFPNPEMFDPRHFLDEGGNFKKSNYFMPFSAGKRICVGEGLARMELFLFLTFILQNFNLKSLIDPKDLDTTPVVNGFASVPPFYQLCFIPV
Sequence of Tyrosine-protein kinase Lck (P06239 whole entry): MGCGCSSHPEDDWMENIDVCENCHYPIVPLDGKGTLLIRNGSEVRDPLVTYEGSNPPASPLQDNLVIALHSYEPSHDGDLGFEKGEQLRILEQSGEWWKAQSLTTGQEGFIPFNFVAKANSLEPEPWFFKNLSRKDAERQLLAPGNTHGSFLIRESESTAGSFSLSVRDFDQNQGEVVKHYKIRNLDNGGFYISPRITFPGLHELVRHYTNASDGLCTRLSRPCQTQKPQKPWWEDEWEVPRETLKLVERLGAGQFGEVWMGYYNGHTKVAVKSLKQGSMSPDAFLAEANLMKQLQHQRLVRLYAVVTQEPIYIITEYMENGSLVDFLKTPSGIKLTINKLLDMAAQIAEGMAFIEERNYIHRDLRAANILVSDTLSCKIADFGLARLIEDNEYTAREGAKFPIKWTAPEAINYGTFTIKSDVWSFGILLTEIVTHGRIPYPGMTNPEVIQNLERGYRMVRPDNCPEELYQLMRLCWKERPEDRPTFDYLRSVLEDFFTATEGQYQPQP
Sequence of Tyrosine-protein kinase Fyn (P06241 whole entry): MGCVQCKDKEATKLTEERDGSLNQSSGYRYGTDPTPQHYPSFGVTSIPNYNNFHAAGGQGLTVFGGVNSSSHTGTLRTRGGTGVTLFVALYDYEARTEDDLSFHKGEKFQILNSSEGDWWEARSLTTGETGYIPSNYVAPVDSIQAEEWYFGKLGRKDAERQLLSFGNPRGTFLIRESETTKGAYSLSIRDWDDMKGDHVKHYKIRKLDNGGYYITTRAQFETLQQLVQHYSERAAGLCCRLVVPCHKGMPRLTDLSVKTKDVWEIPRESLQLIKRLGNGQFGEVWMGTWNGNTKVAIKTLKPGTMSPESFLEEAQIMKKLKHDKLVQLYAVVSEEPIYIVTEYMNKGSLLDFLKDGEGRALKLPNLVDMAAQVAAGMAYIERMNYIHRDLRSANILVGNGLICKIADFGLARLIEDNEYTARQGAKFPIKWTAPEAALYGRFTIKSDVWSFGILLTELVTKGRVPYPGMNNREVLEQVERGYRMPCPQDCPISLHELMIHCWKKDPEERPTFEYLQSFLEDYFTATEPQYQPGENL

SMILES: C=CC(=O)N1CCCC[C@H]1c1nc(-c2ccc(C(=O)Nc3cc(C(F)(F)F)ccn3)cc2)c(C(N)=O)n1N
- IC50 (Cytochrome P450 3A4 [1]): > 10000 nM
- IC50 (Cytochrome P450 3A4 [2]): > 10000 nM
- IC50 (Cytochrome P450 2C19): > 10000 nM
- Cmax [3]: 2380 nM
- Occ [4]: 91%
- Occ [5]: 58%
- Occ [6]: 95%
- Activity [7]: Non-Toxic
- Activity [8]: Non-Toxic
- Activity [9]: Non-Toxic
- Activity [10]: Non-Toxic
- AUC at 24 h [11]: 2000 ng·h/mL
- clearance [12]: 13.4 mL/min/kg
- IC50 [13]: 2.7 nM
- IC50 [14]: 433 nM
- IC50 [15]: > 10000 nM
- IC50 [16]: 15.7 nM
- IC50 [17]: 170 nM
- inhibition (INH) [18]: Not Active
- inhibition (INH) [19]: Not Active
- IC50 (MOLM-13): 3700 nM
- IC50 (TMD8 [20]): 25 nM
- IC50 (Rec1): 35 nM
- IC50 (NAMALVA): 4100 nM
- IC50 (SU-DHL-2): 5500 nM
- IC50 (Pfeiffer): 2500 nM
- Activity (TMD8 [21]): 37.86%
- Activity (TMD8 [22]): 7.94%
- Activity (TMD8 [23]): 10.95%
- Activity (TMD8 [24]): 4.69%
- Activity (TMD8 [25]): 93.84%
- Activity (TMD8 [26]): 19.2%
- inhibition [27]: Active
- Cmax [28]: 1000 ng/mL
- AUC at 504 h [29]: 1780 ng·h/mL
- inhibition in vivo at 15 mg/kg (TMD8 [30]): 106%
- Activity [31]: Non-Toxic
